Results taken from the supplement of paper PMC6045584.
± gives the standard deviation of the averaged measurements.

What was measured:
BI-2536 [1] = compound: T1, CC[C@@H]1C(=O)N(C)c2cnc(Nc3ccc(C(=O)NC4CCN(C)CC4)cc3OC)nc2N1C1CCCC1 [BI-2536]; assay: area under dose-response curve of surviving fraction (unscaled, Aref=0) (surviving fraction x log10(nM)); higher = more resistant; conditions: exposure time: 5 days; dose range 0.5-1000 nM
Outline: (§1)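 Surviving fractions were fitted by 3-parameter logistic regression in the drc R package to give dose-response survival curves. They came from tumour cell lines treated for five days with eight inhibitor concentrations from 0.5 to 1000 nM and read by CellTiter-Glo luminescence against DMSO-only wells. The area under the curve is the unscaled activity area. It was calculated over log10 dose with Aref = 0.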

AFATINIB [2] = compound: T2, CN(C)C/C=C/C(=O)Nc1cc2c(Nc3ccc(F)c(Cl)c3)ncnc2cc1O[C@H]1CCOC1 [AFATINIB]; assay: as above; conditions: exposure time: 5 days; dose range 0.5-1000 nM
Outline: as §1

TIOGUANINE [3] = compound: T3, Nc1nc2[nH]cnc2c(=S)[nH]1 [TIOGUANINE]; assay: as above; conditions: exposure time: 5 days; dose range 0.5-1000 nM
Outline: as §1

SAPACITABINE [4] = compound: T4, CCCCCCCCCCCCCCCC(=O)Nc1ccn([C@@H]2O[C@H](CO)[C@@H](O)[C@@H]2C#N)c(=O)n1 [SAPACITABINE]; assay: as above; conditions: exposure time: 5 days; dose range 0.5-1000 nM
Outline: as §1

CANERTINIB [5] = compound: T5, C=CC(=O)Nc1cc2c(Nc3ccc(F)c(Cl)c3)ncnc2cc1OCCCN1CCOCC1 [CANERTINIB]; assay: as above; conditions: exposure time: 5 days; dose range 0.5-1000 nM
Outline: as §1

[6] = compound: Cn1cc(C2=Nc3cc(NC(=O)C(N)C4CCCCC4)cc4c3C2=CNNC4=O)cn1; assay: as above; conditions: exposure time: 5 days; dose range 0.5-1000 nM
Outline: as §1

MDV3100 [7] = compound: T6, CNC(=O)c1ccc(N2C(=S)N(c3ccc(C#N)c(C(F)(F)F)c3)C(=O)C2(C)C)cc1F [MDV3100]; assay: as above; conditions: exposure time: 5 days; dose range 0.5-1000 nM
Outline: as §1

SNX-5422 [8] = compound: T7, CC1(C)CC(=O)c2c(C(F)(F)F)nn(-c3ccc(C(N)=O)c(N[C@H]4CC[C@H](OC(=O)CN)CC4)c3)c2C1 [SNX-5422]; assay: as above; conditions: exposure time: 5 days; dose range 0.5-1000 nM
Outline: as §1

BI-2536 [9] = compound: T1, BI-2536; assay: surviving fraction relative to DMSO-only wells; higher = less growth inhibition; conditions: exposure time: 5 days
Outline: (§2)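 In 384-well plates, 250–500 log-phase tumour cells per well were given 24 hours before five days of continuous exposure to inhibitors at 0.5, 1, 5, 10, 50, 100, 500 and 1000 nM. Surviving fraction is luminescence from CellTiter-Glo, normalised to the median of wells containing DMSO alone. Reading took place after 10 minutes at room temperature.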

AFATINIB [10] = compound: T2, AFATINIB; assay: as above; conditions: exposure time: 5 days
Outline: as §2

TIOGUANINE [11] = compound: T3, TIOGUANINE; assay: as above; conditions: exposure time: 5 days
Outline: as §2

SAPACITABINE [12] = compound: T4, SAPACITABINE; assay: as above; conditions: exposure time: 5 days
Outline: as §2

CANERTINIB [13] = compound: T5, CANERTINIB; assay: as above; conditions: exposure time: 5 days
Outline: as §2

[14] = compound: Cn1cc(C2=Nc3cc(NC(=O)C(N)C4CCCCC4)cc4c3C2=CNNC4=O)cn1; assay: as above; conditions: exposure time: 5 days
Outline: as §2

MDV3100 [15] = compound: T6, MDV3100; assay: as above; conditions: exposure time: 5 days
Outline: as §2

SNX-5422 [16] = compound: T7, SNX-5422; assay: as above; conditions: exposure time: 5 days
Outline: as §2

SCC003 HEADNECK
area under dose-response curve (BI-2536 [1]): 1.71
area under dose-response curve (AFATINIB [2]): 2.48
area under dose-response curve (TIOGUANINE [3]): 3.27
area under dose-response curve (SAPACITABINE [4]): 2.85
area under dose-response curve (CANERTINIB [5]): 2.54
area under dose-response curve [6]: 3.25
area under dose-response curve (MDV3100 [7]): 3.21
area under dose-response curve (SNX-5422 [8]): 2.21
surviving fraction (BI-2536 [9]; 0.5 nM): 1.06 ± 0.12
surviving fraction (BI-2536 [9]; 1 nM): 0.93 ± 0.027
surviving fraction (BI-2536 [9]; 5 nM): 0.467 ± 0.059
surviving fraction (BI-2536 [9]; 10 nM): 0.412 ± 0.066
surviving fraction (BI-2536 [9]; 50 nM): 0.596 ± 0.074
surviving fraction (BI-2536 [9]; 100 nM): 0.582 ± 0.033
surviving fraction (BI-2536 [9]; 500 nM): 0.381 ± 0.019
surviving fraction (BI-2536 [9]; 1000 nM): 0.275 ± 0.028
surviving fraction (AFATINIB [10]; 0.5 nM): 1.11 ± 0.093
surviving fraction (AFATINIB [10]; 1 nM): 1.04 ± 0.045
surviving fraction (AFATINIB [10]; 5 nM): 0.941 ± 0.1
surviving fraction (AFATINIB [10]; 10 nM): 0.901 ± 0.095
surviving fraction (AFATINIB [10]; 50 nM): 0.636 ± 0.056
surviving fraction (AFATINIB [10]; 100 nM): 0.557 ± 0.0066
surviving fraction (AFATINIB [10]; 500 nM): 0.518 ± 0.068
surviving fraction (AFATINIB [10]; 1000 nM): 0.425 ± 0.058
surviving fraction (TIOGUANINE [11]; 0.5 nM): 0.892 ± 0.14
surviving fraction (TIOGUANINE [11]; 1 nM): 1 ± 0.1
surviving fraction (TIOGUANINE [11]; 5 nM): 1.01 ± 0.033
surviving fraction (TIOGUANINE [11]; 10 nM): 0.99 ± 0.094
surviving fraction (TIOGUANINE [11]; 50 nM): 0.998 ± 0.098
surviving fraction (TIOGUANINE [11]; 100 nM): 1.1 ± 0.12
surviving fraction (TIOGUANINE [11]; 500 nM): 0.988 ± 0.047
surviving fraction (TIOGUANINE [11]; 1000 nM): 0.797 ± 0.027
surviving fraction (SAPACITABINE [12]; 0.5 nM): 0.85 ± 0.04
surviving fraction (SAPACITABINE [12]; 1 nM): 0.797 ± 0.068
surviving fraction (SAPACITABINE [12]; 5 nM): 0.885 ± 0.028
surviving fraction (SAPACITABINE [12]; 10 nM): 0.784 ± 0.047
surviving fraction (SAPACITABINE [12]; 50 nM): 1.05 ± 0.041
surviving fraction (SAPACITABINE [12]; 100 nM): 0.879 ± 0.026
surviving fraction (SAPACITABINE [12]; 500 nM): 0.481 ± 0.003
surviving fraction (SAPACITABINE [12]; 1000 nM): 0.339 ± 0.014
surviving fraction (CANERTINIB [13]; 0.5 nM): 0.691 ± 0.065
surviving fraction (CANERTINIB [13]; 1 nM): 0.867 ± 0.032
surviving fraction (CANERTINIB [13]; 5 nM): 0.897 ± 0.054
surviving fraction (CANERTINIB [13]; 10 nM): 0.775 ± 0.014
surviving fraction (CANERTINIB [13]; 50 nM): 0.899 ± 0.075
surviving fraction (CANERTINIB [13]; 100 nM): 0.8 ± 0.075
surviving fraction (CANERTINIB [13]; 500 nM): 0.718 ± 0.036
surviving fraction (CANERTINIB [13]; 1000 nM): 0.434 ± 0.061
surviving fraction ([14]; 0.5 nM): 1.03 ± 0.12
surviving fraction ([14]; 1 nM): 1.05 ± 0.21
surviving fraction ([14]; 5 nM): 1.1 ± 0.083
surviving fraction ([14]; 10 nM): 1.12 ± 0.041
surviving fraction ([14]; 50 nM): 1.1 ± 0.14
surviving fraction ([14]; 100 nM): 1.1 ± 0.095
surviving fraction ([14]; 500 nM): 0.902 ± 0.11
surviving fraction ([14]; 1000 nM): 0.86 ± 0.12
surviving fraction (MDV3100 [15]; 0.5 nM): 0.928 ± 0.12
surviving fraction (MDV3100 [15]; 1 nM): 0.808 ± 0.069
surviving fraction (MDV3100 [15]; 5 nM): 1 ± 0.049
surviving fraction (MDV3100 [15]; 10 nM): 0.996 ± 0.051
surviving fraction (MDV3100 [15]; 50 nM): 1.06 ± 0.032
surviving fraction (MDV3100 [15]; 100 nM): 1.02 ± 0.059
surviving fraction (MDV3100 [15]; 500 nM): 1.02 ± 0.044
surviving fraction (MDV3100 [15]; 1000 nM): 0.858 ± 0.098
surviving fraction (SNX-5422 [16]; 0.5 nM): 1.16 ± 0.017
surviving fraction (SNX-5422 [16]; 1 nM): 1.15 ± 0.12
surviving fraction (SNX-5422 [16]; 5 nM): 1.16 ± 0.081
surviving fraction (SNX-5422 [16]; 10 nM): 1.13 ± 0.054
surviving fraction (SNX-5422 [16]; 50 nM): 0.608 ± 0.023
surviving fraction (SNX-5422 [16]; 100 nM): 0.384 ± 0.091
surviving fraction (SNX-5422 [16]; 500 nM): 0.0973 ± 0.004
surviving fraction (SNX-5422 [16]; 1000 nM): 0.0767 ± 0.0055
